Values after ≈ are worked out from the molar mass of the structure shown. Active and inactive are the calls of the source. No cut-off for these calls is given here.
Assays:
[1] = system: Escherichia coli; test: Antibacterial activity against Escherichia coli incubated overnight by disk diffusion method; assay type: functional, organism-based
[2] = system: Enterococcus faecium; test: Antibacterial activity against Enterococcus faecium incubated overnight by disk diffusion method; assay type: functional, organism-based
[3] = system: Enterococcus faecalis; test: Antibacterial activity against Enterococcus faecalis incubated overnight by disk diffusion method; assay type: functional, organism-based
[4] = system: Staphylococcus aureus; test: Antibacterial activity against Staphylococcus aureus incubated overnight by disk diffusion method; assay type: functional, organism-based
[5] = system: Streptococcus pneumoniae; test: Antibacterial activity against Streptococcus pneumoniae R6 at 0.5 to 3 mg/ml incubated overnight by disk diffusion method; assay type: functional, organism-based
[6] = system: Streptococcus pneumoniae; test: Antibacterial activity against Streptococcus pneumoniae R6 incubated overnight by disk diffusion method; assay type: functional
[7] = target: T1, Glutamate racemase (Streptococcus pneumoniae serotype 2 (strain D39 / NCTC 7466), UniProt Q04IS7); test: Inhibition of Streptococcus pneumoniae glutamate racemase
T1 sequence (Q04IS7 whole entry): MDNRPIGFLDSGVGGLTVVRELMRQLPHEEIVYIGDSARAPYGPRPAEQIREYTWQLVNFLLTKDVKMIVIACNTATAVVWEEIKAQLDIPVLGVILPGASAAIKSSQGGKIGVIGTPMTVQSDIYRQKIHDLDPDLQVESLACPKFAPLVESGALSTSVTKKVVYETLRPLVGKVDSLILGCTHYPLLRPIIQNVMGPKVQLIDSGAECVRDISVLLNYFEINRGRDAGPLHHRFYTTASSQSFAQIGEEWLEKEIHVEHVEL

[8] = system: Streptococcus pneumoniae; test: Antibacterial activity against Streptococcus pneumoniae; assay type: functional
[9] = system: Streptococcus pneumoniae; test: Ratio of MIC for Streptococcus pneumoniae to IC50 for Streptococcus pneumoniae glutamate racemase

MIC [6] [µg/mL] | IC50 [7] [nM] | MIC [8] [µg/mL] | SMILES | Activity [1] | Activity [2] | Activity [3] | Activity [4] | Activity [5] | Ratio [9]
1000 (≈ 2410 µM) |  |  | O=C(CC(NCCc1c[nH]c2ccccc12)C(=O)O)c1ccc(Br)cc1 (stereo not given) | inactive | inactive | inactive | inactive |  | 
1000 (≈ 2850 µM) |  |  | Cc1ccc(C(=O)CC(NCCc2c[nH]c3ccccc23)C(=O)O)cc1 (stereo not given) | inactive | inactive | inactive | inactive |  | 

Second part, the compound before the results:

SMILES | MIC [6] [µg/mL] | IC50 [7] [nM] | MIC [8] [µg/mL] | Activity [1] | Activity [2] | Activity [3] | Activity [4] | Activity [5] | Ratio [9]
O=C(CC(NCCc1c[nH]c2ccccc12)C(=O)O)c1ccc(Cl)cc1 (stereo not given) |  |  |  | inactive | inactive | inactive | inactive | inactive | 
N[C@H](C[C@H](C(=O)O)c1cccc(-c2ccco2)c1)C(=O)O |  | 1730 | 0.24 (≈ 0.83 µM) |  |  |  |  |  | 
O=C(CC(NCCc1c[nH]c2ccccc12)C(=O)O)c1ccc(F)cc1 (stereo not given) | 1000 (≈ 2820 µM) |  |  | inactive | inactive | inactive | inactive |  | 
N[C@H](C[C@H](C(=O)O)c1ccc(NC(=O)Nc2ccccc2)cc1)C(=O)O |  | 1370 | 16 (≈ 44.8 µM) |  |  |  |  |  | 100
